What is called AUC is the area under the concentration-time curve, a measure of exposure. Broadly, the Cmax is the highest concentration seen after dosing.

Each structure is given as a SMILES string.

The nature of series [1]: Tamper resistance: percent of OC released under tampering conditions, LC-MS/MS. Particulars: RT. The format is physicochemical. How it is done:
Effective abuse deterrent forms of drugs of abuse can also be resistant to chemical tampering. The prodrugs in the present technology also impart this characteristic. Several common tampering scenarios were employed and percent of OC released were determined by liquid chromatography with tandem mass spectrometry (LC-MS/MS). The results as shown in Table 7 indicated a very high degree of tamper resistance in the example OC prodrugs, releasing little to no OC.

Series [2] in a line: Oral PK in rats: plasma concentrations of released oxycodone by LC-MS/MS. The conditions noted are these: for AUC / Cmax / tmax: conjugate equivalent to 2 mg/kg freebase oxycodone; for %-AUC of OC / %-Cmax of OC / %-tmax of OC: relative to oxycodone (OC).
A short description of series [3]: Intranasal PK in rats: plasma concentrations of released oxymorphone by LC-MS/MS.
A short description of series [4]: Intranasal PK in rats (Table 4). Particulars: title: oxymorphone released (released oxycodone).
Series [5] in a line: Oral PK in rats: plasma concentrations of oxymorphone by LC-MS/MS. The conditions noted are these: oxymorphone released; for AUC / Cmax / tmax: conjugate equivalent to 2 mg/kg freebase oxycodone; for %-AUC of OC / %-Cmax of OC / %-tmax of OC: relative to oxycodone (OC).
Setting [6] is: Table 6, equivalent to 2 mg/kg freebase oxycodone.
The mark [7] stands for this setting: Table 6, relative to oxycodone (OC).
Where [8] appears, read: equivalent to 2 mg/kg freebase oxycodone.

Take `COc1ccc2c3c1O[C@H]1C(OC(=O)c4cccc(O)c4)=CC[C@@]4(O)[C@@H](C2)N(C)CC[C@]314` [Conjugate 3-OH-Bz-OC]: the “percent of OC released” value in series [1] (1N HCl, 1 hour) is recorded as under 1%; in series [1] (5% Bicarbonate, 1 hour), 0%; in series [1] (Water, 1 hour) it was 0%; in series [1] (Water, 24 hours), 0%.

Take `COc1cc(C(=O)OC2=CC[C@@]3(O)[C@H]4Cc5ccc(OC)c6c5[C@@]3(CCN4C)[C@H]2O6)ccc1O` [4-OH-3-MeO-Bz-OC]: the “percent of OC released” value in series [1] (1N HCl, 1 hour) is 0%; in series [1] (5% Bicarbonate, 1 hour), 0%; in series [1] (Water, 1 hour), 0%; in series [1] (Water, 24 hours) it was 0%.

As to `COc1ccc2c3c1O[C@H]1C(OC(=O)c4ccccc4)=CC[C@@]4(OC(=O)c5ccccc5)[C@@H](C2)N(C)CC[C@]314` [(Bz)2-OC], the “percent of OC released” value in series [1] (1N HCl, 1 hour) was determined as 0%; in series [1] (5% Bicarbonate, 1 hour), 0%; in series [1] (Water, 1 hour), 0%; in series [1] (Water, 24 hours) it was 0%.

Regarding `COc1ccc2c3c1O[C@H]1C(OC(=O)/C=C/c4ccccc4)=CC[C@@]4(OC(=O)/C=C/c5ccccc5)[C@@H](C2)N(C)CC[C@]314` [(Cin)2-OC], the “percent of OC released” value was 0% in series [1] (1N HCl, 1 hour); 0% in series [1] (5% Bicarbonate, 1 hour); 0% in series [1] (Water, 1 hour); 0% in series [1] (Water, 24 hours).

Turning to `COc1ccc2c3c1O[C@H]1C(OC(=O)c4cccc(O)c4)=CC[C@@]4(OC(=O)c5cccc(O)c5)[C@@H](C2)N(C)CC[C@]314` [(3-OH-Bz)2-OC], the “percent of OC released” value in series [1] (1N HCl, 1 hour) came to 0%; in series [1] (5% Bicarbonate, 1 hour), 0%; in series [1] (Water, 1 hour), 0%; in series [1] (Water, 24 hours) it was 0%.

Regarding `COc1ccc(C(=O)OC2=CC[C@@]3(OC(=O)c4ccc(OC)cc4)[C@H]4Cc5ccc(OC)c6c5[C@@]3(CCN4C)[C@H]2O6)cc1` [(4-MeO-Bz)2-OC], the “percent of OC released” value in series [1] (1N HCl, 1 hour) is reported as 0%; in series [1] (5% Bicarbonate, 1 hour), 0%; in series [1] (Water, 1 hour), 0%; in series [1] (Water, 24 hours), 0%.

With `COc1ccc2c3c1O[C@H]1C(OC(=O)/C=C/c4ccccc4)=CC[C@@]4(O)[C@@H](C2)N(C)CC[C@]314` [6-Cinnamate-OC], the AUC in series [2] was found to be 55.9 ng·h/mL; in series [3] (setting [6]) it was 1.7 ng·h/mL; in series [5], 9.2 ng·h/mL. Besides, the maximum concentration (Cmax) is 35.5 ng/mL in series [2], 2.4 ng/mL in series [3] (setting [6]), 497.2 ng/mL in series [4] (setting [8]) and 4.3 ng/mL in series [5]. The tmax in series [2] is 18 min; in series [3] (setting [6]) it was 30 min; in series [4] (setting [8]), 4.98 min; in series [5] it was 21 min. The “%-AUC of OC” value in series [2] came out at 60%; in series [3] (setting [7]) it was 18%; in series [5], 91%. The “%-Cmax of OC” value in series [2] worked out at 56%; in series [3] (setting [7]) it was 18%; in series [4] (relative to oxycodone (OC)) it was 22%; in series [5], 68%. Moreover, the “%-tmax of OC” value in series [2] was found to be 32%; in series [3] (setting [7]), 133%; in series [4] (relative to oxycodone (OC)) it was 100%; in series [5], 40%. The “percent of OC released” value in series [1] (1N HCl, 1 hour) was 0%; in series [1] (5% Bicarbonate, 1 hour), under 1%; in series [1] (Water, 1 hour), 0%; in series [1] (Water, 24 hours), 0%.

In the case of `COc1ccc2c3c1O[C@H]1C(OC(=O)c4ccccc4)=CC[C@@]4(O)[C@@H](C2)N(C)CC[C@]314` [Bz-OC], the “percent of OC released” value in series [1] (1N HCl, 1 hour) is 0%; in series [1] (5% Bicarbonate, 1 hour), 0%; in series [1] (Water, 1 hour), 0%; in series [1] (Water, 24 hours), 0%.

For `COc1ccc2c3c1O[C@H]1C(OC(=O)c4ccccc4N)=CC[C@@]4(O)[C@@H](C2)N(C)CC[C@]314` [Conjugate 2-ABz-OC], the “percent of OC released” value in series [1] (1N HCl, 1 hour) is 0%; in series [1] (5% Bicarbonate, 1 hour), 3%; in series [1] (Water, 1 hour), under 1%; in series [1] (Water, 24 hours), under 1%.

As to `COc1ccc2c3c1O[C@H]1C(OC(=O)c4cccc(N)c4)=CC[C@@]4(O)[C@@H](C2)N(C)CC[C@]314` [Conjugate 3-ABz-OC], in series [2], the area under the curve (AUC) came to 52.9 ng·h/mL, the Cmax came to 45.5 ng/mL, the tmax was found to be 33 min and the “%-AUC of OC” value is recorded as 83%. In series [2], the “%-Cmax of OC” value was 96% and the “%-tmax of OC” value is recorded as 122%. For the same molecule, the “percent of OC released” value in series [1] (1N HCl, 1 hour) is under 1%. Moreover, the “percent of OC released” value in series [1] (5% Bicarbonate, 1 hour) was under 1%. Further, the “percent of OC released” value in series [1] (Water, 1 hour) amounted to 0%. The “percent of OC released” value in series [1] (Water, 24 hours) was found to be 0%. For the same molecule, in series [5], the AUC stood at 3.6 ng·h/mL, the highest concentration (Cmax) was determined as 2.0 ng/mL, the tmax was found to be 26.4 min and the “%-AUC of OC” value turned out to be 69%. Moreover, in series [5], the “%-Cmax of OC” value is reported as 49% and the “%-tmax of OC” value is reported as 97%.

`COc1ccc2c3c1O[C@H]1C(OC(=O)c4ccc(O)cc4)=CC[C@@]4(OC(=O)c5ccc(O)cc5)[C@@H](C2)N(C)CC[C@]314` [(4-OH-Bz)2-OC]: the “percent of OC released” value in series [1] (1N HCl, 1 hour) is on record as 0%; in series [1] (5% Bicarbonate, 1 hour), 0%; in series [1] (Water, 1 hour) it was 0%; in series [1] (Water, 24 hours), 0%.

Take `COc1cc(C(=O)OC2=CC[C@@]3(OC(=O)c4ccc(O)c(OC)c4)[C@H]4Cc5ccc(OC)c6c5[C@@]3(CCN4C)[C@H]2O6)ccc1O` [(4-OH-3-MeO-Bz)2-OC]: the “percent of OC released” value in series [1] (1N HCl, 1 hour) is recorded as 0%; in series [1] (5% Bicarbonate, 1 hour), 0%; in series [1] (Water, 1 hour), 0%; in series [1] (Water, 24 hours), 0%.

In the case of `COc1ccc2c3c1O[C@H]1C(OC(=O)c4ccccc4O)=CC[C@@]4(O)[C@@H](C2)N(C)CC[C@]314` [Conjugate 2-OH-Bz-OC], the “percent of OC released” value in series [1] (1N HCl, 1 hour) stood at 0%; in series [1] (5% Bicarbonate, 1 hour) it was 5%; in series [1] (Water, 1 hour), 0%; in series [1] (Water, 24 hours) it was 0%.

Turning to `COc1ccc2cc(C(C)C(=O)OC3=CCC4(O)C5Cc6ccc(OC)c7c6C4(CCN5C)C3O7)ccc2c1` (centres unmarked) [Naprox-OC], the “percent of OC released” value is given as under 1% in series [1] (1N HCl, 1 hour); 0% in series [1] (5% Bicarbonate, 1 hour); 0% in series [1] (Water, 1 hour); 0% in series [1] (Water, 24 hours).

Consider `COc1ccc2c3c1OC1C(OC(=O)C(C)c4cccc(Oc5ccccc5)c4)=CCC4(O)C(C2)N(C)CCC314` (mixture of isomers) [6-Fenoprofen-OC], for which, in series [2], the AUC came out at 21.6 ng·h/mL, the Cmax amounted to 14.0 ng/mL, the tmax was 15 min and the “%-AUC of OC” value was 69%. In series [2], the “%-Cmax of OC” value is reported as 87% and the “%-tmax of OC” value is 83%. In series [5], the AUC was 4.6 ng·h/mL, the Cmax was 3.3 ng/mL, the tmax was determined as 15 min and the “%-AUC of OC” value was found to be 67%. In addition, in series [5], the “%-Cmax of OC” value was 68% and the “%-tmax of OC” value is reported as 100%.

Take `COc1ccc2c3c1OC1C(OC(=O)C(C)c4cccc(C(=O)c5ccccc5)c4)=CCC4(O)C(C2)N(C)CCC314` (mixture of isomers) [6-Ketoprofen-OC]: in series [2], the AUC amounted to 25.5 ng·h/mL, the Cmax was found to be 14.7 ng/mL, the tmax came out at 15 min and the “%-AUC of OC” value is given as 81%. Also, in series [2], the “%-Cmax of OC” value came out at 91% and the “%-tmax of OC” value stood at 83%. Besides, the “percent of OC released” value in series [1] (1N HCl, 1 hour) is 2%. The “percent of OC released” value in series [1] (5% Bicarbonate, 1 hour) is listed as 3%. Also, in series [1] (Water, 1 hour), the “percent of OC released” value is recorded as 0%. Further, the “percent of OC released” value in series [1] (Water, 24 hours) is under 1%. Besides, in series [5], the area under the curve (AUC) was found to be 4.3 ng·h/mL, the Cmax worked out at 3.7 ng/mL, the tmax is 15 min and the “%-AUC of OC” value was found to be 62%. In series [5], the “%-Cmax of OC” value was 77% and the “%-tmax of OC” value worked out at 100%.

For the molecule `COc1ccc2c3c1O[C@H]1C(OC(=O)c4cccc(N)c4)=CC[C@@]4(OC(=O)c5cccc(N)c5)[C@@H](C2)N(C)CC[C@]314` [(3-ABz)2-OC], the “percent of OC released” value in series [1] (1N HCl, 1 hour) was 0%; in series [1] (5% Bicarbonate, 1 hour), 0%; in series [1] (Water, 1 hour), 0%; in series [1] (Water, 24 hours), 0%.

These data come from patent US10544153B2, “Benzoic acid, benzoic acid derivatives and heteroaryl carboxylic acid conjugates of oxycodone, prodrugs, methods of making and use thereof” (KemPharm, Inc., priority 2014, dated 2020).
